Reference: US20090018111A1, “Novel Antimicrobial Medicament” (priority 2004, published 2009)

Tests used:
E. cloacae GN7471 = experiment: Sensitivity test (agar dilution); format: cell-based, Enterobacter cloacae
Experimental: (§1) The antibacterial activities were tested against various 18 bacteria (27 standard strains) which are representative bacteria caused clinically infectious disease (Staphylococcus aureus 3 strains, Staphylococcus epidermidis 1 strain, Micrococcus luteus 1 strain, Streptococcus pyogenes 1 strain, Enterococcus faecalis 1 strain, Enterococcus faecium 1 strain, Bacillus subtilis 1 strain, Escherichia coli 3 strains, Klebsiella pneumoniae 1 strain, Proteus mirabilis 1 strain, Proteus vulgaris 2 strains, Pseudomonas aeruginosa 3 strains, Serratia marcescens 2 strains, Enterobacter aerogenes 1 strain, Stenotrophomonas maltophilia 1 strain, Enterobacter cloacae 1 strain, Citrobacter freundii 1 strain, Moraxella catarrhalis 2 strains).
(§2) According to the standard method of Japan Chemotherapeutic Society (Chemotherapy, vol. […], p 76-79 (1981)) the test was carried out using the agar dilution method. After dissolving test samples in distilled water, agar medium containing the test samples was prepared in such a manner that the final concentration became twice serial dilution by pouring serially diluted combination drug solution or a single drug solution into agar medium. As agar medium was used Mueller Hinton Agar medium (MHA). Then, each strain was cultivated over night at 37° C. in an incubator and suspended in buffered saline solution with gelatin (BSG) in the concentration of about 10^6 CFU/ml. The suspension (about 5 μl) containing test strains was inoculated to the medium containing the test samples by Micro Planter.
(§3) When the sample is subjected to sensitivity test, this mixed solution was diluted by twice serial dilution method.
(§4) Furthermore, when the drug is solely used, each test sample was used as it is, and diluted by twice serial dilution method from the maximum concentration to the minimum concentration.
(§5) FIC index based on MIC value was calculated. […] Namely, when FIC index calculated by the following formula is equal or less than 1, the enhanced effect of the combination drug in said ratio is considered as positive. When FIC index is over 1, the enhanced effect of the combination drug in said ratio is considered as negative.
(§6) Formula of FIC index: FIC index=(MIC of Drug A in combination/MIC of Drug A alone)+(MIC of Drug B in combination/MIC of Drug B alone) N.C. in tables means being not calculated.

Str. pyogenes Cook = experiment: Sensitivity test (agar dilution); format: cell-based, Streptococcus pyogenes
Experimental: as §1, §2, §3, §4, §5, §6

M. catarrhalis ATCC8176 = experiment: Sensitivity test (agar dilution); format: cell-based, Moraxella catarrhalis
Experimental: as §1, §2, §3, §4, §5, §6

M. catarrhalis ATCC25238 = experiment: Sensitivity test (agar dilution); format: cell-based, Moraxella catarrhalis
Experimental: as §1, §2, §3, §4, §5, §6

K. pneumoniae ATCC10031 = experiment: Sensitivity test (agar dilution); format: cell-based, Klebsiella pneumoniae
Experimental: as §1, §2, §3, §4, §5, §6

[1] = tested on: 18 bacteria (27 standard strains); experiment: Sensitivity test, combination effect over the standard strains; format: cell-based; conditions: in combination with compound 1, standard strains
Experimental: as §1, §2, §3, §5, §6

P. mirabiris GN2425 = experiment: Sensitivity test (agar dilution); format: cell-based, Proteus mirabilis
Experimental: as §1, §2, §3, §4, §5, §6

S. maltophilia IID1275 = experiment: Sensitivity test (agar dilution); format: cell-based, Stenotrophomonas maltophilia
Experimental: as §1, §2, §3, §4, §5, §6

E. coli ML1410 RP4 = experiment: microbe, parasite or virus in culture; format: cell-based, Escherichia coli; conditions: alone
Experimental: as §1, §2, §3, §4, §5, §6

P. aeruginosa TL-2666 = experiment: Sensitivity test (agar dilution); format: cell-based, Pseudomonas aeruginosa
Experimental: as §1, §2, §3, §4, §5, §6

P. aeruginosa TL-2667 = experiment: Sensitivity test (agar dilution); format: cell-based, Pseudomonas aeruginosa
Experimental: as §1, §2, §3, §4, §5, §6

P. aeruginosa IFO3451 = experiment: Sensitivity test (agar dilution); format: cell-based, Pseudomonas aeruginosa
Experimental: as §1, §2, §3, §4, §5, §6

M. luteus ATCC9341 = experiment: Sensitivity test (agar dilution); format: cell-based, Micrococcus luteus
Experimental: as §1, §2, §3, §4, §5, §6

E. aerogenes ATCC13048 = experiment: Sensitivity test (agar dilution); format: cell-based, Enterobacter aerogenes
Experimental: as §1, §2, §3, §4, §5, §6

P. vurgalis OX-19 = experiment: Sensitivity test (agar dilution); format: cell-based, Proteus vulgaris
Experimental: as §1, §2, §3, §4, §5, §6

P. vulgaris GN7919 = experiment: Sensitivity test (agar dilution); format: cell-based, Proteus vulgaris
Experimental: as §1, §2, §3, §4, §5, §6

S. epidermidis IAM1296 = experiment: Sensitivity test (agar dilution); format: cell-based, Staphylococcus epidermidis
Experimental: as §1, §2, §3, §4, §5, §6

E. faecalis ATCC19433 = experiment: Sensitivity test (agar dilution); format: cell-based, Enterococcus faecalis
Experimental: as §1, §2, §3, §4, §5, §6

[2] = tested on: S. aureus SP-7928 (homo-MRSA); experiment: Sensitivity test (agar dilution); format: cell-based, Staphylococcus aureus
Experimental: as §1, §2, §3, §4, §5, §6

[3] = tested on: S. aureus MS94088 (hetero-MRSA); experiment: Sensitivity test (agar dilution); format: cell-based, Staphylococcus aureus
Experimental: as §1, §2, §3, §4, §5, §6

S. aureus 209P = experiment: Sensitivity test (agar dilution); format: cell-based, Staphylococcus aureus
Experimental: as §1, §2, §3, §4, §5, §6

B. subtilis ATCC6633 = experiment: Sensitivity test (agar dilution); format: cell-based, Bacillus subtilis
Experimental: as §1, §2, §3, §4, §5, §6

S. marcescens GN6473 = experiment: Sensitivity test (agar dilution); format: cell-based, Serratia marcescens
Experimental: as §1, §2, §3, §4, §5, §6

S. marcescens X 100 = experiment: Sensitivity test (agar dilution); format: cell-based, Serratia marcescens
Experimental: as §1, §2, §3, §4, §5, §6

E. faecium ATCC19434 = experiment: Sensitivity test (agar dilution); format: cell-based, Enterococcus faecium
Experimental: as §1, §2, §3, §4, §5, §6

E. coli NIHJ JC-2 = experiment: Sensitivity test (agar dilution); format: cell-based, Escherichia coli
Experimental: as §1, §2, §3, §4, §5, §6

E. coli ML1410 = experiment: Sensitivity test (agar dilution); format: cell-based, Escherichia coli; conditions: alone
Experimental: as §1, §2, §3, §4, §5, §6

C. freundii GN346 = experiment: Sensitivity test (agar dilution); format: cell-based, Citrobacter freundii
Experimental: as §1, §2, §3, §4, §5, §6

## C[C@@H](O)[C@H]1C(=O)N2C(C(=O)O)=C(SCCN=CN)C[C@H]12 [IPM, imipenem]
E. cloacae GN7471; Concomitant (IPM:SM = 1:1)
  MIC: 0.125 µg/mL
E. cloacae GN7471; alone
  MIC: 0.125 µg/mL
Str. pyogenes Cook; Concomitant (IPM:SM = 1:1)
  MIC: ≦0.002 μg/ml
Str. pyogenes Cook; alone
  MIC: ≦0.002 μg/ml
M. catarrhalis ATCC8176; Concomitant (IPM:SM = 1:1)
  MIC: ≦0.002 μg/ml
M. catarrhalis ATCC8176; alone
  MIC: 0.008 µg/mL
M. catarrhalis ATCC25238; Concomitant (IPM:SM = 1:1)
  MIC: ≦0.002 μg/ml
M. catarrhalis ATCC25238; alone
  MIC: 0.008 µg/mL
K. pneumoniae ATCC10031; Concomitant (IPM:SM = 1:1)
  MIC: 0.031 µg/mL
K. pneumoniae ATCC10031; alone
  MIC: 0.125 µg/mL
[1]
  combination effect: the combination effect was recognized
P. mirabiris GN2425; Concomitant (IPM:SM = 1:1)
  MIC: 0.25 µg/mL
P. mirabiris GN2425; alone
  MIC: 1 µg/mL
S. maltophilia IID1275; Concomitant (IPM:SM = 1:1)
  MIC: >32 µg/mL
S. maltophilia IID1275; alone
  MIC: >32 µg/mL
E. coli ML1410 RP4
  MIC: 0.5 µg/mL
P. aeruginosa TL-2666; Concomitant (IPM:SM = 1:1)
  MIC: 1 µg/mL
P. aeruginosa TL-2666; alone
  MIC: 2 µg/mL
P. aeruginosa TL-2667; Concomitant (IPM:SM = 1:1)
  MIC: 8 µg/mL
P. aeruginosa TL-2667; alone
  MIC: 8 µg/mL
P. aeruginosa IFO3451; Concomitant (IPM:SM = 1:1)
  MIC: 0.5 µg/mL
P. aeruginosa IFO3451; alone
  MIC: 1 µg/mL
M. luteus ATCC9341; Concomitant (IPM:SM = 1:1)
  MIC: 0.004 µg/mL
M. luteus ATCC9341; alone
  MIC: 0.024 µg/mL
E. aerogenes ATCC13048; Concomitant (IPM:SM = 1:1)
  MIC: 0.125 µg/mL
E. aerogenes ATCC13048; alone
  MIC: 0.25 µg/mL
P. vurgalis OX-19; Concomitant (IPM:SM = 1:1)
  MIC: 0.063 µg/mL
P. vurgalis OX-19; alone
  MIC: 1 µg/mL
P. vulgaris GN7919; Concomitant (IPM:SM = 1:1)
  MIC: 0.5 µg/mL
P. vulgaris GN7919; alone
  MIC: 1 µg/mL
S. epidermidis IAM1296; Concomitant (IPM:SM = 1:1)
  MIC: 0.016 µg/mL
S. epidermidis IAM1296; alone
  MIC: 0.25 µg/mL
E. faecalis ATCC19433; Concomitant (IPM:SM = 1:1)
  MIC: 0.5 µg/mL
E. faecalis ATCC19433; alone
  MIC: 1 µg/mL
[2]; Concomitant (IPM:SM = 1:1)
  MIC: 2 µg/mL
[2]; alone
  MIC: >32 µg/mL
[3]; Concomitant (IPM:SM = 1:1)
  MIC: 0.25 µg/mL
[3]; alone
  MIC: 0.125 µg/mL
S. aureus 209P; Concomitant (IPM:SM = 1:1)
  MIC: 0.004 µg/mL
S. aureus 209P; alone
  MIC: 0.008 µg/mL
B. subtilis ATCC6633; Concomitant (IPM:SM = 1:1)
  MIC: ≦0.002 μg/ml
B. subtilis ATCC6633; alone
  MIC: 0.016 µg/mL
S. marcescens GN6473; Concomitant (IPM:SM = 1:1)
  MIC: 0.25 µg/mL
S. marcescens GN6473; alone
  MIC: 0.25 µg/mL
S. marcescens X 100; Concomitant (IPM:SM = 1:1)
  MIC: 0.125 µg/mL
S. marcescens X 100; alone
  MIC: 0.25 µg/mL
E. faecium ATCC19434; Concomitant (IPM:SM = 1:1)
  MIC: 0.125 µg/mL
E. faecium ATCC19434; alone
  MIC: 4 µg/mL
E. coli NIHJ JC-2; Concomitant (IPM:SM = 1:1)
  MIC: 0.063 µg/mL
E. coli NIHJ JC-2; alone
  MIC: 0.125 µg/mL
E. coli ML1410
  MIC: 0.25 µg/mL
C. freundii GN346; Concomitant (IPM:SM = 1:1)
  MIC: 0.25 µg/mL
C. freundii GN346; alone
  MIC: 0.5 µg/mL
